Calls of active or inactive are those of the source.
What was measured:
[1] = tested on: BJ; test: cytotoxicity toward BJ-TERT fibroblasts, dose response, cell-based, RAS-independent, luminescence (AID 1933); type: functional; details: Homo sapiens
[2] = cells; type: functional, cell-based
[3] = tested on: BJ; test: cells; type: functional, cell-based; details: Homo sapiens
[4] = target: Luciferin 4-monooxygenase (Photinus pyralis, UniProt P08659); test: firefly luciferase enzyme inhibitors, dose response, biochemical, luminescence (AID 1891)
[5] = Luminescence Cell-Based Dose Confirmation HTS to Identify Inhibitors of Platelet Dense Granule Release. [Related pubchem assays: 1663 (Primary HTS), 1678 (Summary of Project)]; type: functional
[6] = inhibitors of intracellular T. cruzi replication, confirmation, NIH3T3 host cells, beta-gal luminescence (AID 2044); type: functional, cell-based;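 also: intracellular parasites grown in NIH/3T3 mouse fibroblasts as host cells; luminescent beta-galactosidase reporter signal from transgenic T. cruzi replicating inside host cells; inhibitors lower the luminescence signal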
[7] = cells; type: functional, cell-based; remark: listed apart in the source
[8] = cytotoxicity toward NIH3T3 fibroblasts, dose response, counter-screen, cell-based, ATP luminescence, mouse fibroblasts (AID 2010); type: functional;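 also: cells exposed to compound for about 90 hours before reading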
[9] = tested on: BJ; test: cytotoxicity toward BJ-TERT-LT-ST fibroblasts, dose response, cell-based, RAS-independent, luminescence (AID 1935); type: functional; details: Homo sapiens;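 also: BJ fibroblasts immortalized with TERT plus LT and ST oncogenes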
[10] = cytotoxicity toward DRD oncogenic fibroblasts, dose response, cell-based, non-viral oncogenic, luminescence (AID 1934); type: functional; details: Homo sapiens
[11] = target: T1, Caspase-3 (Homo sapiens, UniProt P42574); type: functional;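 also: Dose-response selectivity test against caspase-3 for candidate inhibitors of sentrin-specific proteases (SENPs)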
T1 sequence (P42574 whole entry): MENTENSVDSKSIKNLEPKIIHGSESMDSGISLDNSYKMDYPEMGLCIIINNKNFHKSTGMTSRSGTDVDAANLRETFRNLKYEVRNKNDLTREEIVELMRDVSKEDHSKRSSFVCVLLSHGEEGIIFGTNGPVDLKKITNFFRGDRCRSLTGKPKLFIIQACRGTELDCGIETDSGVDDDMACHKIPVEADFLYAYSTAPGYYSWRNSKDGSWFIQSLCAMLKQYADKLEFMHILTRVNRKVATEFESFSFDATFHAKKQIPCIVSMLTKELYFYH

[12] = target: T2, Sentrin-specific protease 7 (Homo sapiens, UniProt Q9BQF6); type: functional;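 also: Luminescence-based dose-response confirmation of ultra-high-throughput screening hits, measuring inhibition of SENP7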
T2 sequence (Q9BQF6 whole entry): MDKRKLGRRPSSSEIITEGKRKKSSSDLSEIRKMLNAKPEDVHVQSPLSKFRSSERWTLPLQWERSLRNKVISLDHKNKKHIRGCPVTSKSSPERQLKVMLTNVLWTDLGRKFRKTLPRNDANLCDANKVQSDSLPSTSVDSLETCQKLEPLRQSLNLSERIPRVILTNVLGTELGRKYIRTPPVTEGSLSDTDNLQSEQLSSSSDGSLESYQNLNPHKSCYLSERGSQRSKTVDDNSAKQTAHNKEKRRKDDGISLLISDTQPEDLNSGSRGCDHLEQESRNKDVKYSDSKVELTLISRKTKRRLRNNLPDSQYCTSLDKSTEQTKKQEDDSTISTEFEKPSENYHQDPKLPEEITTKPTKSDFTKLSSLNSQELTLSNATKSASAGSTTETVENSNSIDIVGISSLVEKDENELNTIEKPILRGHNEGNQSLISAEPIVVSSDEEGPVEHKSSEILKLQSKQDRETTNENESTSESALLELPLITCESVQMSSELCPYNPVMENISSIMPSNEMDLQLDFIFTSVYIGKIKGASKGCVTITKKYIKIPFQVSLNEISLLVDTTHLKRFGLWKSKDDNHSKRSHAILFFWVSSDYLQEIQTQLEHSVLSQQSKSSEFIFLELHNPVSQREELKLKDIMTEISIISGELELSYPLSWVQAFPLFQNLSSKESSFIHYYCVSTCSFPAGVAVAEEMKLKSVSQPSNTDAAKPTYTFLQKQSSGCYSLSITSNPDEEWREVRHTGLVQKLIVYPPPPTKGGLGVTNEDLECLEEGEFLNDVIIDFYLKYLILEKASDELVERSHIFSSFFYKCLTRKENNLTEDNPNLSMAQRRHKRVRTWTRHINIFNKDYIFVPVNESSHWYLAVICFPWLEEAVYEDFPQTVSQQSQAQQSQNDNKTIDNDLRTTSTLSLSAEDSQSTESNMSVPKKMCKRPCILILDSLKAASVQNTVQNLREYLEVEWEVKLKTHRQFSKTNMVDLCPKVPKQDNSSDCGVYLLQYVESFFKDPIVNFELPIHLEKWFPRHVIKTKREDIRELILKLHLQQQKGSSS

[13] = target: T3, Sentrin-specific protease 6 (Homo sapiens, UniProt Q9GZR1); type: functional;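 also: Luminescence-based dose-response confirmatory assay of SENP6 inhibition, following up an ultra-high-throughput screen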
T3 sequence (Q9GZR1 whole entry): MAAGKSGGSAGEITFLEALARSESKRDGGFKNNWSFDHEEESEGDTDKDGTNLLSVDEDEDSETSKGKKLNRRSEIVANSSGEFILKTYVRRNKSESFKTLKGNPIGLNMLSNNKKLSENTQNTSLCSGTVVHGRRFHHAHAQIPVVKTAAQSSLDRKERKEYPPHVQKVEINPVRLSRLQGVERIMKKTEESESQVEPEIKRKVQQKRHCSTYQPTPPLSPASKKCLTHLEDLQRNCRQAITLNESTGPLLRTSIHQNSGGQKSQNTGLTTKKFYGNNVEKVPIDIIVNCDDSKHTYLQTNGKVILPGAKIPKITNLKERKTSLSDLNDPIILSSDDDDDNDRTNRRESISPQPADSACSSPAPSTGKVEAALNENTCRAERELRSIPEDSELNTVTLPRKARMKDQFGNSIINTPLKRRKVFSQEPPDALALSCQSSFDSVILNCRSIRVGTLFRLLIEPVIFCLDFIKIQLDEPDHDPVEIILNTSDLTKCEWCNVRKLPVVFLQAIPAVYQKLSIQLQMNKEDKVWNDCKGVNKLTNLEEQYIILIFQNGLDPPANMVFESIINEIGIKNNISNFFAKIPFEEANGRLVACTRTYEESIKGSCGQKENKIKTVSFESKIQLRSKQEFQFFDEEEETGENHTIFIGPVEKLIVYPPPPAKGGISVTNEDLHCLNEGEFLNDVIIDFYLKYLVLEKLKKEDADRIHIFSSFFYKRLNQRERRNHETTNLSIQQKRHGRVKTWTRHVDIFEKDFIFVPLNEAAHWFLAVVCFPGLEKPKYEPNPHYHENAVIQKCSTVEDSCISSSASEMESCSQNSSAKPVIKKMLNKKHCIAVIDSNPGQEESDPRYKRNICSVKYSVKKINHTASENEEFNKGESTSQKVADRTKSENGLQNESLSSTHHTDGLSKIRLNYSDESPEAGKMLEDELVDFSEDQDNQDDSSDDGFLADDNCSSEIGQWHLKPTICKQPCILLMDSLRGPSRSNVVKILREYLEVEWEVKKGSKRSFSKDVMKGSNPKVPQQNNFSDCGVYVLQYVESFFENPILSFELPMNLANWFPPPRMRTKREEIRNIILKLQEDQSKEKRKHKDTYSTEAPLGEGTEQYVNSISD

[14] = target: T4, Sentrin-specific protease 8 (Homo sapiens, UniProt Q96LD8); type: functional;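 also: luminescence read-out of SENP8 inhibition, dose-response confirmation following an ultra-high-throughput screen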
T4 sequence (Q96LD8 whole entry): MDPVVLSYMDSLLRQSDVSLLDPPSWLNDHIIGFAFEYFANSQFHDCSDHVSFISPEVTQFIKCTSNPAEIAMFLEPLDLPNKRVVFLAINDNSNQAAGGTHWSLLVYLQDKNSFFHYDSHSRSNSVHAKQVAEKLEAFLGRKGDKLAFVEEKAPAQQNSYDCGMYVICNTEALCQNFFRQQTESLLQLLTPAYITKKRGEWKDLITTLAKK

[15] = tested on: INS1; test: beta cell apoptosis inhibitors, cytokine rescue, dose response, luminescence, retest (AID 449756); type: functional, cell-based; details: Rattus norvegicus;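 also: cell death triggered by IL-1 beta plus TNF-alpha plus IFN-gamma mixture; protective hits raise ATP signal compared with cytokine alone wells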
[16] = HepG2 cell cytotoxicity, dose response, cytotoxicity control, ATP luminescence, cherry-pick, activator set 2 (AID 1053143); type: functional, cell-based
[17] = MITF Orthogonal Assay: SK-MEL-5 CTG Assay Measured in Cell-Based System Using Plate Reader - 2084-02_Inhibitor_Dose_DryPowder_Activity_Set7.; type: functional
[18] = MITF: Counter assay: A375 proliferation Measured in Cell-Based System Using Plate Reader - 2084-03_Inhibitor_Dose_DryPowder_Activity_Set8.; type: functional; details: A-375
[19] = TRPM1 promoter luciferase reporter signal decrease, dose response, MITF inhibitor project, cell-based, SK-MEL-5, dry powder, set 8 (AID 624430); type: functional
[20] = tested on: Streptococcus sp. 'group A'; test: growth inhibition of control SK(-) GAS strain, dose response, counter-screen for streptokinase expression inhibitor project, luminescence, kanamycin, BacTiterGlo, confirmation (AID 1900); type: functional, organism-based
[21] = target: T5, Heat shock factor protein 1 (Mus musculus, UniProt P38532); test: inhibition of MG132-induced HSE-luciferase signal, confirmation, cell-based, NIH3T3, luminescence, dose retest (AID 2382); type: functional;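 also: NIH3T3 fibroblasts with HSF1-driven luciferase reporter stressed by proteasome inhibitor MG132; luminescence from HSF1-driven luciferase expression after 8 hours of MG132 stress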
T5 sequence (P38532 whole entry): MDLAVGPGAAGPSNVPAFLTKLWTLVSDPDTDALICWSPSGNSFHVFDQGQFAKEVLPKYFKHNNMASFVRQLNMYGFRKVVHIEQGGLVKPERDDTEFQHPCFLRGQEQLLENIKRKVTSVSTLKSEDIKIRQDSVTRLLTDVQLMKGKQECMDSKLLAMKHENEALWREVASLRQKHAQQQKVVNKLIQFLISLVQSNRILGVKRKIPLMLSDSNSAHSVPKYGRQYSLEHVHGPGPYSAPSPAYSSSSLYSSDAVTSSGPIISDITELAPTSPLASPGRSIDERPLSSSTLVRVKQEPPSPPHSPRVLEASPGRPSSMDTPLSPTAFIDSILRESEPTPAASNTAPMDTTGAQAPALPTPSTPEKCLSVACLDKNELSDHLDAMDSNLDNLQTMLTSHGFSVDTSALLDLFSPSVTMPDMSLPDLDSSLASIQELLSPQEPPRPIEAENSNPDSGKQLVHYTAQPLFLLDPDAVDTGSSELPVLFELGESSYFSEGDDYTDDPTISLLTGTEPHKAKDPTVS

[22] = tested on: Streptococcus; test: Group A Streptococcus viability loss, dose response, counter-screen for streptokinase expression inhibitor project, luminescence, BacTiterGlo (AID 1915); type: functional, organism-based;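 also: potency for reduction of bacterial viability or growth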
[23] = Luminescence Cell-Based Dose Retest to Confirm Inhibitors of Cancer Stem Cells. [Related pubchem assays (depositor defined):AID2717, AID2721]; type: functional, Homo sapiens; details: Homo sapiens
[24] = Shn3 3'UTR reporter inhibitors, dose response, cell-based, Clone20 osteoblasts, firefly luciferase, cherry-picked (AID 624132); type: functional;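 also: firefly luciferase luminescence from reporter carrying the Shn3 3'UTR in osteoblasts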
[25] = reduction of Shn3 3'UTR firefly luciferase signal, dose response, Schnurri-3 inhibitor project, cell-based, Clone20 osteoblasts, cherry-pick, set 2 (AID 720490); type: functional;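 also: actives lower the luminescence signal as inhibitors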
[26] = inhibitors of control Renilla luciferase reporter, dose response, counter-screen for Shn3 3'UTR targeting project, Clone20-Shn3RL cells, dual-Glo, cherry-pick, set 2 (AID 720724); type: functional, cell-based; details: Dual-Go Shn3RL

Luciferin 4-monooxygenase, sequence (P08659 whole entry): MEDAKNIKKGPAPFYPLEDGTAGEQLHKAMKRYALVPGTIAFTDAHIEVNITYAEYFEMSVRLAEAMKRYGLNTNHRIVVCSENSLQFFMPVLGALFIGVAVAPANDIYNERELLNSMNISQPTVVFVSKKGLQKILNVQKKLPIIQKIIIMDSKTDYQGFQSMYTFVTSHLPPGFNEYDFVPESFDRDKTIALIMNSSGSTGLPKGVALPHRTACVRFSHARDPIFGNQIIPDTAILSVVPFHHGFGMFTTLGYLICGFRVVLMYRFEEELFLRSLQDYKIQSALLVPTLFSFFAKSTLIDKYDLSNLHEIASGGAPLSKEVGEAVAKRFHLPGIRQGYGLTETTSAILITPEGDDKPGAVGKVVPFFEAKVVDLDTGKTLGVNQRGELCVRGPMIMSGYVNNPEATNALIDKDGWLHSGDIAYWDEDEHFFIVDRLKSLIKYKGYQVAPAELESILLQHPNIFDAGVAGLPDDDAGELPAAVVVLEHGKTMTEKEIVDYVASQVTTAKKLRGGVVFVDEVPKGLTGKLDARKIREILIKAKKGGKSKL

CCN(CC)c1ccc(/C=N/NC(=O)c2ccoc2C)c(O)c1
active: EC50 [1] 3.02 µM | EC50 [2] 51.7 µM | EC50 [3] 6.42 µM | EC50 [4] 0.785 µM | EC50 [5] 2.06 µM | EC50 [6] 0.83 µM | EC50 [7] 7.38 µM | EC50 [8] 3.59 µM | EC50 [9] 15.6 µM | EC50 [10] 6.96 µM | IC50 [11] 0.942 µM | IC50 [12] 0.757 µM | IC50 [13] 0.849 µM | IC50 [14] 1.33 µM | AC50 [15] 0.622 µM | AC50 [16] 9.01 µM

O=C1C(Nc2cccc(Cl)c2)=C(N2CCCCC2)C(=O)c2ccccc21
active: AC50 [17] 15.7 µM | AC50 [18] 50.1 µM | AC50 [19] 3.46 µM

COc1c(CC=C(C)C)cc(C2CC(=O)c3c(O)cc(O)cc3O2)cc1CC=C(C)C (configuration not stated)
active: EC50 [20] 2.47 µM | EC50 [21] 11.8 µM | EC50 [22] 3.2 µM | AC50 [23] 3.04 µM | AC50 [15] 4.52 µM | AC50 [24] 5.42 µM | AC50 [25] 2.82 µM | AC50 [26] 24.6 µM

Source: ChEMBL document CHEMBL1201862, “PubChem BioAssay data set” (2004)
